Data as given in patent US7485759B2, “Minimization of ligand degradation products, or reversion of same to useful phosphine ligands” (Dow Technology Investments LLC, priority 2003, dated 2009).

What was measured:
[1] = Continuous hydroformylation mini-plant with soy methyl esters; formation rate of phosphonium degradation products (Examples 6-8, Comparative Experiment 6); type: physicochemical
Procedure: The formation rate of phosphonium degradation products was measured in a continuous hydroformylation mini-plant, which consisted of a reaction system comprised of three reactors in series and a product/catalyst separation system with catalyst recycle. The reactors were charged with a catalyst solution containing Ligand A (2.5 wt %) shown in Example 5 hereinabove, Rh(CO)2acac (500 ppm Rh), and 20 wt % 1-methyl-2-pyrrolidone (NMP). A mixture of soy methyl esters was fed continuously to the first reactor. The reactors were operated at 600 psig (4,137 kPa) pressure by continuously feeding a gaseous mixture of carbon monoxide and hydrogen (CO:H2=1:1 vol/vol). The reaction was conducted for 153 hours continuously at 85° C. The formation rate of phosphonium degradation products was measured to be 0.02 g/liter/day during this period. The pressure of carbon monoxide and hydrogen (CO:H2=1:1 vol/vol) was then reduced to 400 psig (2,758 kPa) while keeping the temperature and other conditions unchanged. The reaction was conducted for 59 hours, and the formation rate of phosphonium degradation products was measured to be 0.03 g/liter/day during this period. The results illustrate a low rate of phosphonium formation at a pressure greater than 300 psig, and further that phosphonium formation decreases with increasing pressure.
The formation rate of phosphonium degradation products was measured in a continuous hydroformylation mini-plant similar to the system described in Example 6. The reaction system was charged with a catalyst solution containing Ligand A (2.5 wt %) as shown in Example 5 hereinabove, Rh(CO)2acac (500 ppm Rh), and 20 wt % 1-methyl-2-pyrrolidone (NMP). Soy methyl esters were fed continuously to the reaction system. The reactors were operated at 400 psig (2,758 kPa) pressure by continuously feeding a gaseous mixture of carbon monoxide and hydrogen (CO:H2=1:1 vol/vol). The reaction was conducted continuously for 59 hours with all reactors at 85° C. The formation rate of phosphonium degradation products was measured to be 0.03 g/liter/day during this period.
For comparative purposes, Example 7 was repeated with the exception that the temperature of the last reactor was increased to 100° C. while keeping the temperature of all other reactors at 85° C. All other conditions remained unchanged. The reaction was conducted for 140 hours and the formation rate of phosphonium degradation products was measured to be 0.07 g/liter/day during this period.
The formation rate of phosphonium degradation products was measured in a continuous hydroformylation mini-plant similar to the one described in Example 6. The reaction system was charged with a catalyst solution containing Ligand A (2 wt %), Rh(CO)2acac (300 ppm Rh), and 30 wt % 1-methyl-2-pyrrolidone (NMP). Soy methyl esters, were fed continuously to the reaction system. The reactors were operated at 300 psig (2,068 kPa) pressure by continuously feeding a gaseous mixture of carbon monoxide and hydrogen (CO:H2=1:1 vol/vol). The reaction was conducted continuously for 150 hours at 95° C. The formation rate of phosphonium degradation products were measured to be 0.05 g/liter/day during this period. The pressure of the reaction system was increased to 600 psig (4136 kPa), and the temperature of the reaction system was decreased to 85° C., while keeping all other conditions unchanged. The reaction was conducted for 350 hours and the formation rate of phosphonium degradation products was measured to be 0.02 g/liter/day during this period.

[2] = Batch hydroformylation of soy oil methyl esters; average rate of phosphonium ligand degradation product formation by 31P NMR (Comparative Experiment 5, Example 5); type: physicochemical; details: 30 psig, reaction time 4 days
Procedure: The hydroformylation of soy oil methyl esters was conducted at 100° C. for comparative purposes to illustrate the effect of temperature on the formation of ligand degradation products. Under a nitrogen atmosphere, a hydroformylation catalyst solution was prepared containing Ligand A (2.208 g, 5.866 mmol, initial ligand concentration in the reactor: 0.10M), Rh(CO)2acac (0.0366 g, 0.142 mmol), and 1-methyl-2-pyrrolidone (NMP, 16.05 g). Ligand A, the mono-sulfonated sodium salt of bis(dicyclohexyl)phenylphosphine, has the following structure.
Also prepared under nitrogen was a neat solution of soybean oil-derived methyl esters (33.95 g, 115.08 mmol), prepared by the transesterification of soybean oil with methanol using standard methods known in the art. Soybean oil contains polyunsaturated esters. Under nitrogen, the catalyst solution was added into a 100 mL stainless steel reactor, and the soy methyl esters were added into a substrate delivery cylinder attached to the reactor. […] The average rate of phosphonium ligand degradation product formation was determined using the NMR data.
The hydroformylation of soy oil methyl esters was conducted at 85° C. as an example of the invention to illustrate the effect of temperature on the formation of ligand degradation products. […] The average rate of phosphonium ligand degradation product formation was determined using the NMR data.

Q: Which results are given for `O=S(=O)([O-])c1cccc(P(C2CCCCC2)C2CCCCC2)c1.[Na+]` [Ligand A, mono-sulfonated sodium salt of bis(dicyclohexyl)phenylphosphine]?
A: formation rate of phosphonium degradation products ([1]; Comparative Experiment 6, 400 psig, last reactor 100° C., other reactors 85° C., 140 hours): 0.07 g/L/day; formation rate of phosphonium degradation products ([1]; Example 6, 400 psig, 85° C., 59 hours, Ligand A 2.5 wt %): 0.03 g/L/day; formation rate of phosphonium degradation products ([1]; Example 6, 600 psig, 85° C., 153 hours, Ligand A 2.5 wt %): 0.02 g/L/day; formation rate of phosphonium degradation products ([1]; Example 7, 400 psig, all reactors at 85° C., 59 hours, Ligand A 2.5 wt %): 0.03 g/L/day; formation rate of phosphonium degradation products ([1]; Example 8, 300 psig, 95° C., 150 hours, Ligand A 2 wt %): 0.05 g/L/day; formation rate of phosphonium degradation products ([1]; Example 8, 600 psig, 85° C., 350 hours, Ligand A 2 wt %): 0.02 g/L/day; Phosphonium formation rate Average ([2]; 85° C., initial ligand concentration 0.14 M): 0.04 g/L/day; Phosphonium formation rate (Average g/L/day) ([2]; 100° C., initial ligand concentration 0.10M): 0.1 g/L/day
